The values below come from ChEMBL document CHEMBL1154073, “Combining selectivity and affinity predictions using an integrated Support Vector Machine (SVM) approach: An alternative tool to discriminate between the human adenosine A(2A) and A(3) receptor pyrazolo-triazolo-pyrimidine antagonists binding sites” (Bioorg Med Chem, 2009).

In one test the target is Adenosine receptor A2a (Homo sapiens, UniProt P29274). The experiment in a line: biochemical.
For another test, the target named is T1, Adenosine receptor A3 (Homo sapiens, UniProt P0DMS8).
T1 sequence (P0DMS8 whole entry): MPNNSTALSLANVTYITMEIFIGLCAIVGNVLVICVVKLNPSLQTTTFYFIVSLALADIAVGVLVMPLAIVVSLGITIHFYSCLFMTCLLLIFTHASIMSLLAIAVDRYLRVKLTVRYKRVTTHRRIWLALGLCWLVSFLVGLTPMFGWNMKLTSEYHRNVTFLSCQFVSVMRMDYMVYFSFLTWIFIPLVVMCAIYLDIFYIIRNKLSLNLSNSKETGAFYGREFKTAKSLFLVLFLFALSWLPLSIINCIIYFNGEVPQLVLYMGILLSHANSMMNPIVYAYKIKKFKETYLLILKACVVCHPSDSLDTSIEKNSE
Put plainly: Displacement of [3H]NECA from human adenosine A3 receptor expressed in CHO cells. The format is cell-based. Background: Displacement assays read how much labelled ligand stays bound in the presence of the test substance.

The next test addresses T2, Adenosine receptor A1 (Homo sapiens, UniProt P30542).
T2 sequence (P30542 whole entry): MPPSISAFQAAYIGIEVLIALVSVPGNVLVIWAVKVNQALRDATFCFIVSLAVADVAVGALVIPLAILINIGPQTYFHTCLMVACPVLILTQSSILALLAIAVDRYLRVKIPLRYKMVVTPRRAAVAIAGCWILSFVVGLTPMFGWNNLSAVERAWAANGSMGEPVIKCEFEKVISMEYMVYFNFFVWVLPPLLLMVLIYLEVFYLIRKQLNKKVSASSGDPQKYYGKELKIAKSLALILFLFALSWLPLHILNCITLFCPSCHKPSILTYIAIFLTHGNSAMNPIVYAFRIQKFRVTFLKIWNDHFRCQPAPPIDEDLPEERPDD
The experiment in a line: Displacement of [3H]CCPA from human adenosine A1 receptor expressed in CHO cells. The format is cell-based.

The target in another test is T3, Adenosine receptor A2b (Homo sapiens, UniProt P29275).
T3 sequence (P29275 whole entry): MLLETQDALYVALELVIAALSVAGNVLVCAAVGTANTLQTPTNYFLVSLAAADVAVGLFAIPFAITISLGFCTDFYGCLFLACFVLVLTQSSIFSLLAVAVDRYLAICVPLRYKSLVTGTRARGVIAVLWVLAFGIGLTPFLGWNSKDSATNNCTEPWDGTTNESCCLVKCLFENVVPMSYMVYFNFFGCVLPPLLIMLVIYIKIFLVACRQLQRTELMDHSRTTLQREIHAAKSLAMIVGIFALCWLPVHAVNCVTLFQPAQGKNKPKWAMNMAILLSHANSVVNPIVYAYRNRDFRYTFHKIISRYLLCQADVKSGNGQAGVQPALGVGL
Put plainly: Antagonist activity at human adenosine A2B receptor expressed in CHO cells assessed as inhibition of NECA-induced adenylyl cyclase activity. The format is functional, cell-based.

By pKi is commonly meant −log10 of the Ki, conventionally taken in molar units. A lower pKi goes with a high Ki. By pIC50 is commonly meant −log10 of the IC50, conventionally taken in molar units.

The structures appear in SMILES notation. pIC50, pKi: −log10 of the molar value. Bounds are passed on as bounds.

Sequence of Adenosine receptor A2a (P29274 whole entry): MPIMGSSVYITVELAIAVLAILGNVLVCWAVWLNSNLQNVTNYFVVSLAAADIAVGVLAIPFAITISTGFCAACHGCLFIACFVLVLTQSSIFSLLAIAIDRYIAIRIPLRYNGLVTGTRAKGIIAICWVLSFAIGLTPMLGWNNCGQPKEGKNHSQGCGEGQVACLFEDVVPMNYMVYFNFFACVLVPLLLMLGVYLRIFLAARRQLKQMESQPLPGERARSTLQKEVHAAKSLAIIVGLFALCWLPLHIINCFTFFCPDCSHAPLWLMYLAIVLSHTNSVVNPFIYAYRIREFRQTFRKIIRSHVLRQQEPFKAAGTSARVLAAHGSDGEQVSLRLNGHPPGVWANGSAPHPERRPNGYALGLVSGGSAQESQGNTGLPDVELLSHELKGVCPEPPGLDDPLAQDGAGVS
Description for Adenosine receptor A2a: Displacement of [3H]NECA from human adenosine A2A receptor expressed in CHO cells

Take `CCn1cc2c(nc(NC(=O)Cc3cccc4ccccc34)n3nc(-c4ccco4)nc23)n1`: the pKi on Adenosine receptor A2a was 7.13; on Adenosine receptor A3, 8.52; on Adenosine receptor A1 it was 6.22. Besides, the pIC50 on Adenosine receptor A2b is below 4.30.
Regarding `O=C(Cc1cccs1)Nc1nc2nn(CCc3ccccc3)cc2c2nc(-c3ccco3)nn12`, the results for the pKi on Adenosine receptor A3 and at Adenosine receptor A1 were 6.48 and 7.73, respectively. For the same molecule, the negative logarithm of the IC50 (pIC50) on Adenosine receptor A2b is below 5.00.
`CCn1cc2c(nc(NC(=O)Cc3ccc(-c4ccccc4)cc3)n3nc(-c4ccco4)nc23)n1`: the figures for the pKi at Adenosine receptor A2a, at Adenosine receptor A3 and at Adenosine receptor A1 were 7.15, 7.85 and 6.25, respectively. For the same molecule, the pIC50 on Adenosine receptor A2b was below 4.30.
In the same order, the values of `Cn1cc2c(nc(NC(=O)C(c3ccccc3)c3ccccc3)n3nc(-c4ccco4)nc23)n1` are 6.67, 9.60, 6.86 and 6.44.
In the same order, the values of `O=C(Cc1ccc(-c2ccccc2)cc1)Nc1nc2nn(CCCc3ccccc3)cc2c2nc(-c3ccco3)nn12` are 6.59, 6.39, 5.93 and below 4.00.
Regarding `O=C(Cc1cccc(Cl)c1)Nc1nc2nn(CCCc3ccccc3)cc2c2nc(-c3ccco3)nn12`, the figures for the negative-log Ki (pKi) at Adenosine receptor A2a, on Adenosine receptor A3 and on Adenosine receptor A1 were 6.74, 6.96 and 6.22, respectively. The pIC50 at Adenosine receptor A2b was 4.30.
In the same order, the values of `COc1ccc(CC(=O)Nc2nc3nn(C)cc3c3nc(-c4ccco4)nn23)cc1` are 7.20, 9.02, 6.88 and below 5.00.
In the same order, the values of `O=C(Cc1ccccc1)Nc1nc2nn(CCc3ccccc3)cc2c2nc(-c3ccco3)nn12` are 7.36, 8.26, 6.89 and below 5.52.
In the same order, the values of `Cn1cc2c(nc(NC(=O)Cc3cccs3)n3nc(-c4ccco4)nc23)n1` are 7.25, 8.28, 6.35 and below 5.00.
As to `Nc1nc2nn(CCc3c(Br)cc(Br)cc3Br)cc2c2nc(-c3ccco3)nn12`, the results for the negative-log Ki (pKi) at Adenosine receptor A2a and at Adenosine receptor A3 were 6.46 and 5.35, respectively.
`O=C(Cc1ccc(F)cc1)Nc1nc2nn(CCCc3ccccc3)cc2c2nc(-c3ccco3)nn12`: the pKi at Adenosine receptor A2a was 6.68; on Adenosine receptor A3, 7.23; at Adenosine receptor A1, 6.14. The pIC50 at Adenosine receptor A2b is below 4.30.
Molecule `CC(C)CCn1cc2c(nc(NC(=O)Cc3cccs3)n3nc(-c4ccco4)nc23)n1` gave a negative logarithm of the Ki (pKi) at Adenosine receptor A3 of 6.51.
For the molecule `O=C(Cc1c(Cl)cccc1Cl)Nc1nc2nn(CCCc3ccccc3)cc2c2nc(-c3ccco3)nn12`, the results for the negative-log Ki (pKi) at Adenosine receptor A2a, at Adenosine receptor A3 and on Adenosine receptor A1 were 6.73, 6.22 and 6.10, respectively. Besides, at Adenosine receptor A2b, the pIC50 is below 5.00.
In the same order, the values of `CCCCn1cc2c(nc(NC(=O)C(c3ccccc3)c3ccccc3)n3nc(-c4ccco4)nc23)n1` are 6.94, 8.92, 6.89 and 6.11.
In the same order, the values of `CCCCn1cc2c(nc(NC(=O)Cc3cccs3)n3nc(-c4ccco4)nc23)n1` are 8.38, 7.00, 7.15 and 5.74.
In the same order, the values of `Cn1cc2c(nc(NC(=O)Cc3cccc4ccccc34)n3nc(-c4ccco4)nc23)n1` are 7.09, 8.46, 6.06 and below 5.00.
In the case of `CC(C)CCn1cc2c(nc(NC(=O)Cc3ccsc3)n3nc(-c4ccco4)nc23)n1`, the negative logarithm of the Ki (pKi) at Adenosine receptor A2a was 8.41; at Adenosine receptor A3, 6.27.
With `Cn1cc2c(nc(NC(=O)Cc3cccc(Cl)c3)n3nc(-c4ccco4)nc23)n1`, the results for the negative-log Ki (pKi) at Adenosine receptor A2a, on Adenosine receptor A3 and on Adenosine receptor A1 were 7.52, 8.71 and 6.39, respectively. Also, the negative logarithm of the IC50 (pIC50) at Adenosine receptor A2b is 5.05.
In the case of `COc1ccc(CC(=O)Nc2nc3nn(C)c(SC)c3c3nc(-c4ccco4)nn23)cc1`, on Adenosine receptor A3, the pKi was below 6.00.
On to `CC(C)CCn1cc2c(nc(NC(=O)Cc3ccc(F)cc3)n3nc(-c4ccco4)nc23)n1`, for which the negative logarithm of the Ki (pKi) was 8.43 at Adenosine receptor A2a, 6.94 on Adenosine receptor A3 and 7.29 on Adenosine receptor A1. At Adenosine receptor A2b, the negative logarithm of the IC50 (pIC50) was 5.30.
Regarding `CCOC(=O)[C@H]1Oc2ccc(CCCn3ncc4c3nc(N)n3nc(-c5ccco5)nc43)cc2O1`, the pKi at Adenosine receptor A2a was 8.26; on Adenosine receptor A3, below 5.00.
Regarding `Cn1cc2c(nc(NC(=O)Cc3c(Cl)cccc3Cl)n3nc(-c4ccco4)nc23)n1`, the results for the pKi on Adenosine receptor A2a, at Adenosine receptor A3 and on Adenosine receptor A1 were 7.34, 7.35 and 6.04, respectively. Moreover, at Adenosine receptor A2b, the pIC50 was 5.19.
Regarding `O=C(Cc1cccc(Cl)c1)Nc1nc2nn(CCc3ccccc3)cc2c2nc(-c3ccco3)nn12`, the values for the pKi on Adenosine receptor A3 and at Adenosine receptor A1 were 6.56 and 7.88, respectively. Also, at Adenosine receptor A2b, the pIC50 is 5.04.
`O=C(Cc1ccsc1)Nc1nc2nn(CCc3ccccc3)cc2c2nc(-c3ccco3)nn12`: the pKi at Adenosine receptor A3 is 6.14; at Adenosine receptor A1, 7.64. Also, the pIC50 on Adenosine receptor A2b is below 5.00.
Regarding `Nc1nc2c(cnn2CCCc2ccc3c(c2)O[C@@H](C(=O)O)O3)c2nc(-c3ccco3)nn12`, the pKi at Adenosine receptor A2a is 7.23; at Adenosine receptor A3 it was below 5.00.
The molecule `CC(C)CCn1cc2c(nc(NC(=O)CCCNC(=O)OC(C)(C)C)n3nc(-c4ccco4)nc23)n1` gave a pKi on Adenosine receptor A2a of 6.53.
For `COc1ccc(CC(=O)Nc2nc3nn(CCC(C)C)cc3c3nc(-c4ccco4)nn23)cc1`, the negative-log Ki (pKi) is 8.71 at Adenosine receptor A2a and 6.44 on Adenosine receptor A3.
In the same order, the values of `CC(C)CCn1cc2c(nc(NC(=O)COc3ccc(Cl)cc3)n3nc(-c4ccco4)nc23)n1` are 7.79 and 5.64.
In the same order, the values of `C=Cn1cc2c(nc(NC(=O)Nc3ccc(OC)cc3)n3nc(-c4ccco4)nc23)n1` are 6.75 and 9.32.
Molecule `CC(C)(C)OC(=O)NCCCC(=O)Nc1nc2nn(CCc3ccccc3)cc2c2nc(-c3ccco3)nn12` showed a pKi at Adenosine receptor A2a of 6.54.
Consider `O=C(Nc1cccc(Cl)c1)Nc1nc2nn(CCc3c(Br)cc(Br)cc3Br)cc2c2nc(-c3ccco3)nn12`, for which the negative-log Ki (pKi) at Adenosine receptor A2a was 5.44; at Adenosine receptor A3 it was 7.15.
For the molecule `CCOC(=O)COc1ccc(CCCn2ncc3c2nc(N)n2nc(-c4ccco4)nc32)cc1`, the pKi on Adenosine receptor A2a was 9.37; at Adenosine receptor A3 it was below 5.00.
For `O=C(COc1ccc(Cl)cc1)Nc1nc2nn(CCCc3ccccc3)cc2c2nc(-c3ccco3)nn12`, the pKi is 6.40 at Adenosine receptor A3 and 7.15 at Adenosine receptor A1. Also, the pIC50 on Adenosine receptor A2b was below 5.00.
For `COc1ccc(NC(=O)Nc2nc3nn(CCc4c(Br)cc(Br)cc4Br)cc3c3nc(-c4ccco4)nn23)cc1`, the pKi is 5.69 on Adenosine receptor A2a and 7.60 on Adenosine receptor A3.
With `CCn1cc2c(nc(NC(=O)C(c3ccccc3)c3ccccc3)n3nc(-c4ccco4)nc23)n1`, the results for the pKi at Adenosine receptor A2a and on Adenosine receptor A3 were 6.88 and 9.01, respectively.
For the molecule `COc1ccc(CC(=O)Nc2nc3nn(CCCc4ccccc4)cc3c3nc(-c4ccco4)nn23)cc1`, at Adenosine receptor A3, the pKi was 6.92.
The same measure, in the same setting: in the case of `CCn1cc2c(nc(N)n3nc(-c4ccco4)nc23)n1` it was 5.42.
As to `CSc1c2c(nc(NC(=O)Cc3ccc(OCC(C)C)cc3)n3nc(-c4ccco4)nc23)nn1C`, the results for the pKi at Adenosine receptor A2a and at Adenosine receptor A3 were 7.30 and below 6.00, respectively.
In turn, `Cn1cc2c(nc(NC(=O)COc3ccccc3)n3nc(-c4ccco4)nc23)n1` had a negative logarithm of the Ki (pKi) on Adenosine receptor A3 of 6.16.
As to `Nc1nc2c(cnn2CCCc2ccc3c(c2S(=O)(=O)O)OCO3)c2nc(-c3ccco3)nn12`, the negative logarithm of the Ki (pKi) at Adenosine receptor A2a was 7.12; at Adenosine receptor A3, below 5.00.
In the same order, the values of `CCCCn1cc2c(nc(NC(=O)Cc3ccc4ccccc4c3)n3nc(-c4ccco4)nc23)n1` are 8.10 and 6.76.
In the same order, the values of `CCOC(=O)c1ccc(CCn2ncc3c2nc(N)n2nc(-c4ccco4)nc32)cc1` are 8.40 and below 5.00.
`COc1ccc(NC(=O)Nc2nc3nn(Cc4cccc5ccccc45)cc3c3nc(-c4ccco4)nn23)cc1`: the pKi is 5.49 on Adenosine receptor A2a and 7.80 on Adenosine receptor A3.
Turning to `CCCCn1cc2c(nc(NC(=O)Cc3cccc4ccccc34)n3nc(-c4ccco4)nc23)n1`, the pKi is 7.00 at Adenosine receptor A3 and 6.77 at Adenosine receptor A1. The negative-log IC50 (pIC50) at Adenosine receptor A2b was 5.13.
For `O=C(COc1ccc(Cl)cc1)Nc1nc2nn(CCc3ccccc3)cc2c2nc(-c3ccco3)nn12`, the pKi at Adenosine receptor A2a is 7.50; on Adenosine receptor A3, 5.49.
On to `CC(C)CCn1cc2c(nc(NC(=O)Cc3ccc(-c4ccccc4)cc3)n3nc(-c4ccco4)nc23)n1`, for which the pKi on Adenosine receptor A3 was 6.57; at Adenosine receptor A1 it was 7.07. Moreover, the pIC50 at Adenosine receptor A2b is 5.05.
